Key:
mice [1] = assay: Measurement of plasma insulin in mice following treatment with CCK-8 or a CCK agonist; type: in vivo; conditions: tail vein injection, 2 minutes
Description: Measurement of Plasma Insulin in Mice Following Treatment With CCK-8 or a CCK Agonist
Male mice, weighing from about 20 to about 30 g each, were used in all experiments. The animals were fed with laboratory lab chow and water ad libitum. CCK-8 or one the CCK agonist compounds of this invention was injected into the tail vein. Two minutes later, the animals were sacrificed and the blood was collected in 1.5 mL heparinized polypropylene tubes. The tubes were centrifuged at 10,000×g for 2 minutes. The insulin levels were determined in the supernatant, i.e., plasma, by radioimmuno assay (RIA) using kits obtained from Radioassay Systems Laboratory (Carson, CA.) or Novo Biolabs (Danbury, Conn.). The results of this assay are shown in Table 3 and are expressed as the percent increase in insulin secretion over insulin secretion observed in mice injected with a saline solution. Each dose was tested in at least six mice and the values presented are averages for the group of mice tested at each dose.

mice [2] = assay: Behavioral effect of CCK agonists in mice (suppression of locomotor activity); type: in vivo
Description: Behavioral Effect of CCK Agonists in Mice
The animals were placed on a slightly elevated metal grid and restrained by the thumb and forefinger at the level of the shoulders, thus immobilizing their heads. Injections were made with a 30 gauge needle with a "stop" consisting of a piece of tygon tubing to limit penetration of the needle to about 4.5 mm below the surface of the skin. The needle was inserted perpendicular to the skull at a midline point equidistant from each eye and an equal distance posterior from the level of the eyes such that the injection site and the two eyes form an equilateral triangle. The injection volume (5 ul) was expelled smoothly over a period of approximately 1 second.
Immediately after the injections the mice were placed in their cages and allowed a 15 minute recovery period prior to the beginning of behavioral observations.
For the behavioral observations, the mice were placed in clear plastic cages. Each cage measured 19×26×15 cm and contained a 60-tube polypropylene test tube rack place on end in the center of the cage to enhance exploratory activity. Observations were made every 30 seconds for a period of 30 minutes. […] Differences among groups were analyzed by Newman-Kewels analysis and a probability level of p<0.05 was accepted as significant.

rats [3] = assay: Feeding effects of chronic administration of CCK-8 and CCK agonists in rat (liquid diet); type: in vivo; conditions: ip, 10 nmol/kg, 11 days of testing
Description: Feeding Effects of Chronic Administration of CCK-8 and CCK Agonists in Rat
Adult male Sprague-Dawley rats, weighing approximately 250 g, were placed on a restricted diet. Rats were weighed every morning and were allowed access to a liquid diet (Ensure®) for 60 minutes in the morning and 45 minutes in the late afternoon; intakes were recorded every 15 minutes. […] Six to 10 minutes later, the rats were presented with the diet, and intakes were recorded as usual. No injections were administered prior to the PM feeding. After 11 days of testing, half of the animals were sacrificed while the remaining rats were withdrawn from treatment and injected with vehicle for 4 days.

rats [4] = assay: Feeding effect of CCK agonists in food-deprived rats; type: in vivo; conditions: i.p., dose 20 μg/kg, one hour feeding, vehicle 9.40 grams
Description: Feeding Effect of CCK Agonists in Rats
Forty male, Sprague-Dawley rats were subjected to a 23 hour food deprivation schedule for four days. On the fifth day, the animals were divided into five equal groups based on their previous (4th day) food intake. […] The amount of food consumed was measured after subtraction of spillage.

guinea pig gallbladder = conditions: read-out: EC50 for contraction; isolated guinea pig gallbladder, 37° C.; 50% of the compound's own maximal contraction
Description: Guinea Pig Gallbladder Contraction
Gallbladders were obtained from male guinea pigs (250-300 gm). The bile was emptied by a small incision and the gallbladder was suspended in an organ bath. The tissue was maintained at 37° C., suspended in Krebs-Ringer buffer (mM: NaCl, 118; KCl, 4.7; CaCl2, 2.5; MgCl2, 1.2; NaH2 PO4, 1.2; NaHCO3, 25; choline chloride, 30 mM; glucose, 11) and bubbled with 95% O2 -5% CO2. Isometric contractions were recorded with a Grass polygraph. Baseline tension was set at 0.3 grams. After equilibration for approximately 30 minutes, CCK-8 (20 nM) was introduced and tensions were recorded. After reaching maximal contractions (about 5 minutes), the drug was washed out by overflow. The CCK-8 addition was repeated twice to ensure constant force of contraction.

CSCC[C@H](NC(=O)[C@H](Cc1ccc(OS(=O)(=O)O)cc1)NC(=O)[C@@H](N)CC(=O)O)C(=O)NCC(=O)N[C@@H](Cc1c[nH]c2ccccc12)C(=O)N[C@@H](CCSC)C(=O)N[C@@H](CC(=O)O)C(=O)N[C@@H](Cc1ccccc1)C(N)=O [CCK-8, Asp-Tyr(SO3 H)-Met-Gly-Trp-Met-Asp-PheNH2]
% Increase In Insulin Secretion Versus Saline Control (mice [1]; dose 3 nmole/kg): 65%
% Increase In Insulin Secretion Versus Saline Control (mice [1]; dose 10 nmole/kg): 85%
% Increase In Insulin Secretion Versus Saline Control (mice [1]; dose 30 nmole/kg): 90%
% Increase In Insulin Secretion Versus Saline Control (mice [1]; dose 100 nmole/kg): 70%
Minimal Effective Dose, suppression of locomotor activity (mice [2]; ICV administration): 3.0 nmol/mouse
Minimal Effective Dose, suppression of locomotor activity (mice [2]; IP administration): 0.001 µmol/kg
AM liquid food intake versus controls (rats [3]): significantly reduced intakes on just the first and last treatment days
body weight gain versus controls (rats [3]): no significant effects on body weight gain
Mean Food Intake (rats [4]): 6.56 grams
EC50 (guinea pig gallbladder): 5.9 nM

From US5270302A, “Derivatives of tetrapeptides as CCK agonists” (priority 1991, dated 1993)
